Test results: patent US12668594B2, “TYK2 inhibitors and uses thereof” (Sudo Biosciences Limited, priority 2020, dated 2026)

Key:
[1] = tested on: IL-2-pSTAT5; assay: STAT phosphorylation assay IL-2-pSTAT5; type: cell-based; conditions: Homo sapiens, 0.25 h; IL-2 (20 ng/ml) 15 min, phospho-STAT5 Western blot normalized to GAPDH; read-out: Selectivity assays (STATs) % Inhibition IL-2-pSTAT5
Method: 0.3 to 0.5×10^6 Reporter cells (IL-23, IL-2, IFNα or IFNγ on HEK293 background purchased from InvivoGen) were seeded per well in 0.8 mL of DMVEM cell medium supplemented with 100 U/ml-100 μg/ml Pen-Strep and 10% FBS in 12 or 6-well plates and incubated overnight at 370 C, 5% CO2, 95% humidity. 0.1 mL test compounds serially diluted in DMSO and further diluted (10×) in intermediate plate containing cell treatment medium were prepared and added to the wells. The plates were incubated at 37° C. for 1 hr. Control wells contained 1′% DMSO prepared in cell medium. Post incubation, respective reporter cells were stimulated with 0.1 mL of either IL-23 (50 ng/ml; Miltenyl Biotech, cat #130-095-758) for 45 min or IL-2 (20 ng/ml) (Miltenyl Biotech, cat #130-097-742) for 15 min or IFNα/β (10 ng/ml) (Invivogen, cat #rcyc-hifna2b) for 15 min or IFN-γ (50 ng/ml) (Invivogen, cat #rcyec-hifng) for 15 min. Post stimulation cells were washed with DPBS once and lysed with 100 μL of RIPA buffer and placed on ice for 5 min. […]
Samples were diluted 5× in cell lysis buffer and total protein concentration was determined in 96-well using Bradford Protein Assay following manufacturer's instructions. […]
(§1) Western blot results were analysed using Compass 2.7.1 software and phospho-STAT quantity (AUC values) was normalized to GAPDH quantity (AUC values) for each sample.

[2] = target: T1, JAK3-JH1 (Homo sapiens, UniProt P52333); assay: HTRF-based selectivity assay, JAK3 catalytic domain; type: biochemical; conditions: kinase domain (JH1), ATP 2.12 μM
T1 construct: recombinant purified His or GST-tagged catalytic domain for each enzyme; purchased Carna biosciences 08-046
Method: (§2) The ability of compounds to inhibit the activity of JAK1, JAK2, JAK3 and TYK2 is measured using a recombinant purified His or GST-tagged catalytic domain for each enzyme (JAK1, JAK2 and TYK2 are generated in-house; JAK3 was purchased from Carna biosciences, Cat #08-046) in an HTRF format biochemical assay. The reactions employs a commercial peptide substrate from Cisbio (Cat #62TK0PEC). The basic assay protocol is as follows: first, 2.5 µL of diluted compounds (4×) in DMSO are dispensed into a 384-well Optiplate. Next, 2.5 μL of enzyme (final concentrations for enzymes are: TYK2-700 ng/mL, JAK1-80.6 ng/mL, JAK2-2.1 ng/mL and JAK3-171.8 ng/mL) is added and incubated at RT for 5-20 min. Finally, 5 μl of mixture of 2×ATP [Final concentration 20 μM for TYK2, 21.43 μM for JAK1, 14.7 μM for JAK2 and 2.12 μM for JAK3]+2× Substrate [Final concentration 217 nM for TYK2, 454.7 nM for JAK1, 200 nM for JAK2 and 257.4 nM for JAK3] is added to 384 well Optiplate. Composition of Kinase assay buffer used in the assay is as follows: HEPES 50 mM, EGTA 1 mM, MgCl2 10 mM, DTT2 mM, Tween-20 0.010 and water. Then the plates are shaken and then incubated at 26.5° C. for 60 min. At the end of the incubation, 10 μL of mixture of 2× detection mix [(EU3+Cryptate (1×)+Streptavidin-XL665 (final concentration: 62.5 nM) (HTRF KinEASE-TK kit Cat #62TK0PEC)] is added to the assay plate, shaken and incubated at 26.5° C. for 60 min. Plates are then read on a Perkin Elmer Envision for HTRF signal (665 nm reading/615 nm reading). After normalization to untreated controls, the percent inhibition of the HTRF signal at each compound concentration is calculated. The plot of percent inhibition versus the log of compound concentration is fit with a 4-parameter dose response equation to calculate IC50 values.

[3] = tested on: IFN-γ; assay: Selectivity assay (SEAP) IFN-γ reporter cells; type: cell-based; conditions: Homo sapiens, IFN-γ reporter cells on HEK293 background, read-out: Selectivity assays (SEAP) nM or E-Max % IFN-γ
[4] = target: T2, JAK2-JH1 (Homo sapiens, UniProt O60674); assay: HTRF-based selectivity assay, JAK2 catalytic domain; type: biochemical; conditions: kinase domain (JH1), ATP 14.7 μM
T2 construct: recombinant purified His or GST-tagged catalytic domain for each enzyme; made in house
Method: as §2

[5] = target: T3, TYK2 (Homo sapiens, UniProt P29597); assay: HEK-Blue IFNα/β reporter assay (SEAP) for TYK2 pseudokinase inhibition; type: cell-based; conditions: HEK-Blue IFNα/β cells, 1 ng/mL human recombinant IFNα
Method in brief: (§3)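 HEK-Blue cells carrying cytokine receptor and STAT3 or STAT1 SEAP reporter, pretreated 60 min with compound, then stimulated with 10 ng/mL IL-23 (22–24 h) or 1 ng/mL IFNα (16–18 h). SEAP read with QUANTI-Blue; IC50 by non-linear regression versus no-inhibitor and unstimulated controls.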

[6] = tested on: IFN-γ-pSTAT1; assay: STAT phosphorylation assay IFN-γ-pSTAT1; type: cell-based; conditions: Homo sapiens, 0.25 h; IFN-γ (50 ng/ml) 15 min, phospho-STAT1 Western blot normalized to GAPDH; read-out: Selectivity assays (STATs) % Inhibition IFN-γ-pSTAT1
Method: 0.3 to 0.5×10^6 Reporter cells (IL-23, IL-2, IFNα or IFNγ on HEK293 background purchased from InvivoGen) were seeded per well in 0.8 mL of DMVEM cell medium supplemented with 100 U/ml-100 μg/ml Pen-Strep and 10% FBS in 12 or 6-well plates and incubated overnight at 370 C, 5% CO2, 95% humidity. 0.1 mL test compounds serially diluted in DMSO and further diluted (10×) in intermediate plate containing cell treatment medium were prepared and added to the wells. The plates were incubated at 37° C. for 1 hr. Control wells contained 1′% DMSO prepared in cell medium. Post incubation, respective reporter cells were stimulated with 0.1 mL of either IL-23 (50 ng/ml; Miltenyl Biotech, cat #130-095-758) for 45 min or IL-2 (20 ng/ml) (Miltenyl Biotech, cat #130-097-742) for 15 min or IFNα/β (10 ng/ml) (Invivogen, cat #rcyc-hifna2b) for 15 min or IFN-γ (50 ng/ml) (Invivogen, cat #rcyec-hifng) for 15 min. Post stimulation cells were washed with DPBS once and lysed with 100 μL of RIPA buffer and placed on ice for 5 min. The lysates were then transferred to 1.5 mL Eppendorf tubes and centrifuged for 5 minutes at 10000 rpm at 4° C. and the supernatants either stored at −80° C. or used for protein estimation.
Samples were diluted 5× in cell lysis buffer and total protein concentration was determined in 96-well using Bradford Protein Assay following manufacturer's instructions. Western blot assay was performed using Protein Simple Wes Master Kit (SM-W004/DM-001) and device, following manufacturer's instructions. 1 to 2 mg/mL of total proteins were loaded per sample in 4 μL volume; phospho-STAT1, 3 or 5 antibodies (1:25) and GAPDH antibodies were diluted as indicated.
as §1

[7] = target: T4, JAK1-JH1 (Homo sapiens, UniProt P23458); assay: HTRF-based selectivity assay, JAK1 catalytic domain; type: biochemical; conditions: kinase domain (JH1), ATP 21.43 μM
T4 construct: recombinant purified His or GST-tagged catalytic domain for each enzyme; made in house
Method: as §2

[8] = target: T5, TYK2-JH1 (Homo sapiens, UniProt P29597); assay: HTRF-based selectivity assay, TYK2 catalytic domain; type: biochemical; conditions: kinase domain (JH1), ATP 20 μM
T5 construct: recombinant purified His or GST-tagged catalytic domain for each enzyme; made in house
T5 sequence (P29597 897-1176 limits assumed): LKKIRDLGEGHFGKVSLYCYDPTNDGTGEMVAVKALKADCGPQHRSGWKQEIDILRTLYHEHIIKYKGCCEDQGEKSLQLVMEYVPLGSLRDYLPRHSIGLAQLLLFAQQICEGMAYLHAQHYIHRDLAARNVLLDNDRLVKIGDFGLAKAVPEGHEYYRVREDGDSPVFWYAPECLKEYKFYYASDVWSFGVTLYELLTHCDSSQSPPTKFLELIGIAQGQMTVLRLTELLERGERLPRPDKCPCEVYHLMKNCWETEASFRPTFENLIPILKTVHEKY
Method: as §2

[9] = target: T3, TYK2; assay: HEK-Blue IL-23 reporter assay (SEAP) for TYK2 pseudokinase inhibition; type: cell-based; parameters: HEK-Blue™ IL-23 and IFNα/β cells with a stably-integrated cytokine receptor and STAT3 or STAT1; host or cells: HEK-Blue IL-23 / HEK-Blue IFNα/β cells (HEK293 background); conditions: HEK-Blue IL-23 cells, 10 ng/mL human recombinant IL-23, SEAP reporter; read-out: IL23 IC50
Method in brief: as §3

[10] = tested on: IL-2; assay: Selectivity assay (SEAP) IL-2 reporter cells; type: cell-based; conditions: Homo sapiens, IL-2 reporter cells on HEK293 background, read-out: Selectivity assays (SEAP) nM or E-Max % IL-2

T4 sequence (P23458 875-1153 limits assumed): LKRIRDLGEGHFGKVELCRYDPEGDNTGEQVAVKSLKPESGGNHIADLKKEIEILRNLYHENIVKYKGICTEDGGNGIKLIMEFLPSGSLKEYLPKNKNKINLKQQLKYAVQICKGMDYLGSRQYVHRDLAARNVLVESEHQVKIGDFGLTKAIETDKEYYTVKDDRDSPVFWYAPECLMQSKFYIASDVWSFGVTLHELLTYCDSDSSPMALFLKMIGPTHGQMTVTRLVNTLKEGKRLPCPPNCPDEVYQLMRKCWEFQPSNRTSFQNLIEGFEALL
T2 sequence (O60674 849-1124 limits assumed): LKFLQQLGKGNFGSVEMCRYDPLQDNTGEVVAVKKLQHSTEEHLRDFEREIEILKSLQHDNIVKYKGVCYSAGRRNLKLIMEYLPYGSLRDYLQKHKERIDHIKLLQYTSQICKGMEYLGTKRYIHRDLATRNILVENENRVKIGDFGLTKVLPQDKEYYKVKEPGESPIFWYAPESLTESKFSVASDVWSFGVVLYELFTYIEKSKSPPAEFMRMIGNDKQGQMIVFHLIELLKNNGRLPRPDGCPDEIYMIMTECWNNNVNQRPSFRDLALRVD
T1 sequence (P52333 822-1111 limits assumed): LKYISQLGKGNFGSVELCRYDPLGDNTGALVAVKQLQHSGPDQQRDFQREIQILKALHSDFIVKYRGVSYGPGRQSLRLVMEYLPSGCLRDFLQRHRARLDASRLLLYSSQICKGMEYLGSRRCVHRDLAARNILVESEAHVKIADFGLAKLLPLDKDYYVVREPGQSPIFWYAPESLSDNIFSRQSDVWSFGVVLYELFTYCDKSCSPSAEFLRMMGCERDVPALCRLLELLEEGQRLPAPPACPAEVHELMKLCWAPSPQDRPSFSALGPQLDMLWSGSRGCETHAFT
T3 sequence (P29597 whole entry): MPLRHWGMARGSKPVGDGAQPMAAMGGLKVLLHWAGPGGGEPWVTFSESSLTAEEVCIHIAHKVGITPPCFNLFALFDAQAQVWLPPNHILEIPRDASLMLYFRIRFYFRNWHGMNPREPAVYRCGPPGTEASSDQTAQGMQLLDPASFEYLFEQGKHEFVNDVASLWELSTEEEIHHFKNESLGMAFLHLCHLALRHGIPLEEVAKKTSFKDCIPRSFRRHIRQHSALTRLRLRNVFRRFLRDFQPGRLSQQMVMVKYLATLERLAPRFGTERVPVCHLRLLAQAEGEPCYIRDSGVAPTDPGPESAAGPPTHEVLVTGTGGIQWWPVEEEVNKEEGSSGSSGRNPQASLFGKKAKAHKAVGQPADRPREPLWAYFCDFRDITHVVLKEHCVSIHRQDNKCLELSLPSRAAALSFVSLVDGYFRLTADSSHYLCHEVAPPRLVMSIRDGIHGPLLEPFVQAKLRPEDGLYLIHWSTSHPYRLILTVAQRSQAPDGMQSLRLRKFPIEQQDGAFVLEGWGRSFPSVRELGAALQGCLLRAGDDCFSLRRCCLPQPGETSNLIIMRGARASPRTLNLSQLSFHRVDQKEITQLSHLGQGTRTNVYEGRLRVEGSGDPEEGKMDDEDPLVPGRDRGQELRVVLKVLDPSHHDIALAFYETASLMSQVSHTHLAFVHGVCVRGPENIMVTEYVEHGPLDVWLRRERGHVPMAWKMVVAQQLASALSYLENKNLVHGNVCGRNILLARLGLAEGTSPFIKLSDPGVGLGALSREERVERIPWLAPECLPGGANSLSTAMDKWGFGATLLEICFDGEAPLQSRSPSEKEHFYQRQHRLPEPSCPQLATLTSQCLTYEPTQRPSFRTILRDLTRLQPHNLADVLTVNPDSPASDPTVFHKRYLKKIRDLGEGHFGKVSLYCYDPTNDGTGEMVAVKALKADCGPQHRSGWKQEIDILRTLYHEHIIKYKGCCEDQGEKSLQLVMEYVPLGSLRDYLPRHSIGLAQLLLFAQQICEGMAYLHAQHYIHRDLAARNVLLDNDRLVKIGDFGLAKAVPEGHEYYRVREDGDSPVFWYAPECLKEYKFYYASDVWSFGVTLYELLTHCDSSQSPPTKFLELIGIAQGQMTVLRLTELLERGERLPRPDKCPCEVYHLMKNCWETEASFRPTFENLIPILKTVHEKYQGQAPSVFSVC

SMILES | IC50 [2] | IC50 [3] | IC50 [4] | IC50 [5] | IC50 [7] | IC50 [8] | IC50 [9] | IC50 [10] | IC50 [1] | IC50 [6]
Cc1cc(Nc2cc3c(cn2)c(=O)[nH]n3-c2ccc(Cl)cc2)nc(C)n1 [Compound I-65, 1-(4-chlorophenyl)-6-((2,6-dimethylpyrimidin-4-yl)amino)-1,2-dihydro-3H-pyrazolo[4,3-c]pyridin-3-one] | > 90 µM | > 90000 nM | > 90 µM | > 90 µM | > 90 µM | > 90 µM | < 10 µM | > 90000 nM |  | 
O=C(Nc1cc2c(cn1)c(=O)[nH]n2-c1ccccc1)C1CC1 [Compound I-1, N-(3-oxo-1-phenyl-2,3-dihydro-1H-pyrazolo[4,3-c]pyridin-6-yl)cyclopropanecarboxamide] | 10 to 30 µM | 30000 to 90000 nM | 30 to 90 µM | < 10 µM | 30 to 90 µM | 30 to 90 µM | < 10 µM | > 90000 nM |  | > 90 µM
Cc1cc(Nc2cc3c(cn2)c(=O)[nH]n3-c2ccc(OC(F)(F)F)c(F)c2)nc(C)n1 [Compound I-94, 6-((2,6-dimethylpyrimidin-4-yl)amino)-1-(3-fluoro-4-(trifluoromethoxy)phenyl)-1,2-dihydro-3H-pyrazolo[4,3-c]pyridin-3-one] | > 90 µM | > 90000 nM | > 90 µM | < 10 µM | > 90 µM | > 90 µM | < 10 µM | > 90000 nM |  | 
Cc1cc(Nc2cc3c(cn2)c(=O)[nH]n3-c2ccc(OC(F)(F)F)cc2)nc(C)n1 [Compound I-69, 6-((2,6-dimethylpyrimidin-4-yl)amino)-1-(4-(trifluoromethoxy)phenyl)-1,2-dihydro-3H-pyrazolo[4,3-c]pyridin-3-one] | > 90 µM | > 90000 nM | > 90 µM | < 10 µM | > 90 µM | > 90 µM | < 10 µM | > 90000 nM |  | 
Cc1cc(Nc2cc3c(cn2)c(=O)[nH]n3-c2ccccc2)nc(C)n1 [Compound I-3, 6-((2,6-dimethylpyrimidin-4-yl)amino)-1-phenyl-1,2-dihydro-3H-pyrazolo[4,3-c]pyridin-3-one] | < 10 µM | 10000 to 30000 nM | < 10 µM | < 10 µM | > 90 µM | 10 to 30 µM | < 10 µM | 30000 to 90000 nM | > 90 µM | > 90 µM
O=c1[nH]n(-c2ccc(OC(F)(F)F)c(F)c2)c2cc(Nc3ccc(F)cn3)ncc12 [Compound I-95, 1-(3-fluoro-4-(trifluoromethoxy)phenyl)-6-((5-fluoropyridin-2-yl)amino)-1,2-dihydro-3H-pyrazolo[4,3-c]pyridin-3-one] | > 90 µM | > 90000 nM | > 90 µM | < 10 µM | > 90 µM | > 90 µM | < 10 µM | > 90000 nM |  | 
Cc1cc(Nc2cc3c(cn2)c(=O)[nH]n3-c2ccc(OC(F)F)cc2)nc(C)n1 [Compound I-72, 1-(4-(difluoromethoxy)phenyl)-6-((2,6-dimethylpyrimidin-4-yl)amino)-1,2-dihydro-3H-pyrazolo[4,3-c]pyridin-3-one] | > 90 µM | > 90000 nM | > 90 µM | < 10 µM | > 90 µM | > 90 µM | < 10 µM | > 90000 nM |  | 

Further lines, with some results ahead:

IC50 [2] | IC50 [3] | IC50 [4] | IC50 [5] | IC50 [7] | IC50 [8] | IC50 [9] | IC50 [10] | SMILES | IC50 [1] | IC50 [6]
10 to 30 µM | 30000 to 90000 nM | 10 to 30 µM | < 10 µM | > 90 µM | 30 to 90 µM | < 10 µM | > 90000 nM | COc1cccc(-n2[nH]c(=O)c3cnc(Nc4cc(C)nc(C)n4)cc32)c1 [Compound I-17, 6-((2,6-dimethylpyrimidin-4-yl)amino)-1-(3-methoxyphenyl)-1,2-dihydro-3H-pyrazolo[4,3-c]pyridin-3-one] | 30 to 90 µM | > 90 µM
> 90 µM | > 90000 nM | > 90 µM | < 10 µM | > 90 µM | > 90 µM | < 10 µM | > 90000 nM | COc1cccc(-n2[nH]c(=O)c3cnc(Nc4ccnc(C)n4)cc32)c1 [Compound I-49, 1-(3-methoxyphenyl)-6-((2-methylpyrimidin-4-yl)amino)-1,2-dihydro-3H-pyrazolo[4,3-c]pyridin-3-one] |  | 
> 90 µM | > 90000 nM | > 90 µM | < 10 µM | > 90 µM | > 90 µM | < 10 µM | > 90000 nM | Cc1cc(Nc2cc3c(cn2)c(=O)[nH]n3-c2cccc(F)c2)nc(C)n1 [Compound I-59, 6-((2,6-dimethylpyrimidin-4-yl)amino)-1-(3-fluorophenyl)-1,2-dihydro-3H-pyrazolo[4,3-c]pyridin-3-one] |  | 
